# Source: patent US20040092438A1, “Gd3-synthesis inhibitors for treating neuropathological disorders” (priority 1999, published 2004)
# What was measured:
# [1] = test system: primary neurons; assay: Neuronal death after addition of gangliosides to cortical neuron cultures; assay type: cell-based, mouse; conditions: 24 h after addition of 500 μM (highest dose) to cortical neuronal cells
# Protocol: (§1) Neurons were obtained from transgenic mice whose acid sphingomyelinase had been inactivated (ASM^−/−; Hirunouchi, K., et al., Nature Genetics 10, 288-294 (1995)) and wild-type mice of the same generation (ASM^+/+). Primary neuron cultures were prepared from 15- to 17-day mouse fetuses as previously described by Dawson, T. M., et al, Ann. neurol. 30, 843-6 (1991). […] The cells were applied to polyornithine-coated 24-well plates (Sigma, Deisenhofen, Germany). After 4 days, the cells were treated with cytosine arabinoside (5 μM) for a further four days in order to inhibit the proliferation of non-neural cells. The cell cultures were then kept at 8% CO2 and 37° C. in MEM, 10% horse serum, 25 mM glucose and 2 mM L-glutamine in a humidity incubator. The neurons were allowed to mature in culture for at least 8 days before being used for the experiment. The proportion of glial cells in the culture was determined using an antibody directed against glial fibrillary acidic protein (GFAP) to be less than 10%.
# (§2) The percentage of dead cells was determined by trypan blue exclusion and expressed as percentage of the specific death. This was calculated as follows:
# (§3) % specific death=(detected death−spontaneous death)/(100−spontaneous death)×100
# Cortical neuronal cells were treated with increasing doses of GD3. […]
# [2] = test system: GD3 levels in the ischemic hemisphere; assay: GD3 levels in brain after MCA occlusion (thin-layer chromatography); assay type: in vivo, mice (C57BL6 strain); conditions: single i.p. 100 mg/kg with piperonyl butoxide 400 mg/kg, 15 min after MCA occlusion; 90-minute occlusion, 24-hour reperfusion
# Protocol: (§4) This was done by pushing a siliconized nylon suture through the common carotid artery as far as the MCA and stopping the blood flow through the MCA. After 90 min, the thread was withdrawn and thus the blood circulation was restored. The animals were under deep anesthesia (ketamine and Rompun; each 150 mg/kg of bodyweight) and the rectal temperature was maintained at about 37° C. with heat lamps and a heated cushion throughout the operation. After an observation period of 24 hours, the animals were again anesthetized, and the brains were dissected after perfusion.
# Thus, tissues and cells were disrupted by two freeze-thaw cycles. The polar lipids were extracted, and the gangliosides were chromatographed on silica gel plates 60 for high performance thin-layer chromatography (HPTLC) (Merck, Darmstadt, Germany), dried and visualized with resorcinol. […] For the immunostaining, the plates were coated with 0.5% poly(isobutyl methacrylate) in hexane, dried, incubated with the monoclonal antibody R24 (IgG3) directed against GD3 for 1 h, and read via the immunoperoxidase stain. The bands were then scanned and analyzed by densitometry using the AIDA-1000/1B image analyzer (Raytest Isotopenmessgerate, Straubenhardt, Germany).
# [3] = test system: focal cerebral ischemia; conditions: single i.p. 100 mg/kg with piperonyl butoxide; p <0.007
# Protocol: as §4
# The stained sections were scanned directly (MCID-M4,3.0; Imaging Res. Inc.). […] The significance was determined by the Mann-Whitney test. […] Averaging took place with the Scion-Image b 3.b.
# [4] = test system: GD3 synthase; assay: GD3 levels in neurons after oxygen/glucose deficiency and reperfusion (thin-layer chromatography); assay type: cell-based, mouse; conditions: 80 nM added 48 h before 6-hour oxygen/glucose deficiency, 24-hour reperfusion; relative to ST8-Sc-treated neurons
# Protocol: The procedure for generating a combined oxygen/glucose deficiency was known per se (Kaku, D. A., et al., Brain Res. 554:344-7; Monyer, H. et al., Neuron 8, 967-73 (1992); with slight modifications). The culture medium was replaced by MEM, 1% horse serum and 2 mM L-glutamine. The cultures were kept in an anaerobic chamber which contained a gas mixture comprising […], 85% N2 and 5% CO2, at 37° C. and 100% humidity for 6 h. The oxygen/glucose deficiency was abolished by removing the cultures from the chamber and adding horse serum and glucose to a final concentration of 10% and 25 mM respectively. The cultures were then replaced in a humidity incubator containing 8% CO2 and atmospheric oxygen for a further 3 h, 18 h or 24 h. […]
# GD3 was determined as previously described by De Maria, R., et al., Science 277, 1652-5 (1997). […] For the immunostaining, the plates were coated with 0.5% poly(isobutyl methacrylate) in hexane, dried, incubated with the monoclonal antibody R24 (IgG3) directed against GD3 for 1 h, and read via the immunoperoxidase stain. The bands were then scanned and analyzed by densitometry using the AIDA-1000/1B image analyzer (Raytest Isotopenmessgerate, Straubenhardt, Germany).
# [5] = test system: primary neurons; assay: Oxygen/glucose deficiency in vitro, specific death of primary neurons; assay type: cell-based, mouse; conditions: 80 nM added 48 h before 6-hour oxygen/glucose deficiency, then reperfusion; relative to ST8-Sc-treated neurons
# Protocol: as §1, with “10%. […]” for “10%.”
# as §2, §3
compound,measurement,setting,value
"II^3(NeuAc-α-2,8-NeuAc)LacCer [GD3]",specific neuronal death,[1],up to 80%
"CCCCCCCCCC(=O)N[C@H](CN1CCOCC1)[C@H](O)c1ccccc1 [D-PDMP, D-threo-1-phenyl-2-decanoylamino-3-morpholino-1-propanol]",increase in GD3 on the ischemic side compared with the non-ischemic side,[2],10%
same,reduction in the lesion caused by stroke compared with untreated ischemic animals,[3],90%
"GD3 synthase antisense oligodeoxynucleotides: antisense oligodeoxynucleotides against GD3 synthase (SEQ ID NO:2) (antisense CAGTACAGCCATGGCCCCTCT; DNA, backbone and methylation of C not given here)","accumulation of GD3, % of controls",[4],55%
same,"mortality, % of the level in cultures treated with randomly arranged sequence",[5],50%
